From patent US20040167111A1, “Pharmaceutical preparations for treating side effects during and/or after GnRHa therapy” (priority 1998, published 2004)

Legend:
[1] = tested on: test subjects with fibroid tumors of the uterus; experiment: Clinical study in women with fibroid tumors of the uterus under GnRHa therapy; format: in vivo, human
Procedure: (§1) The effectiveness of injected Decapeptyl-Depot (Ferring Arzneimittel GmbH, Kiel, Germany) in a dose of 3.2 mg of Triptorelin intramuscularly at intervals of four weeks and 1 to 2 mg of 14α,15α-methylene-1,3,5(10),8-tetraene-3,17α-diol daily, given in the form of a vaginal suppository of 1 mg of 14α,15α-methylene-1,3,5(10),8-tetraene-3,17α-diol each, was tested in fourteen female test subjects aged 22 to 38, who were being treated with Decapeptyl-Depot for endometriosis for at least six months.
Test subjects aged 22 to 46 with fibroid tumors of the uterus were given the same doses.

[2] = tested on: female test subjects treated with Decapeptyl-Depot for endometriosis; experiment: Clinical study in women with endometriosis under GnRHa therapy (Decapeptyl-Depot); format: in vivo, human
Procedure: Here clinical studies in women with endometriosis are reported.
as §1
The treatment with 14α,15α-methylene-1,3,5(10),8-tetraene-3,17α-diol was begun four weeks after the beginning of GnRHa therapy, that is, at the time of the second Decapeptyl injection.
Hot flashes were recorded by the subjects daily on a control form laid out for a 24-hour day, beginning with the first day of Decapeptyl therapy.
The mean number of hot flashes per 24 hours in weeks 3 and 4 of the GnRHa treatment (that is, before the beginning of the 14α,15α-methylene-1,3,5(10),8-tetraene-3,17α-diol therapy) was assumed to be 100%, for the sake of better comparability. The number of hot flashes during additional therapy with 14α,15α-methylene-1,3,5(10),8-tetraene-3,17α-diol was indicated as a percentage of the starting value. For five subjects, a measurement of skin temperature over 24 hours was done, for the sake of objectivity.
At intervals of four weeks, immediately prior to the injection of Decapeptyl-Depot, blood was drawn to determine LI-I, FSH, prolactin, testosterone, DHEAS, SHBG, free testosterone, estradiol, and progesterone. Blood specimens were also taken for determining a simple blood count, SGOT, SGPT, creatinine, Na, K, Ca, albumin, glucose and CA 125.
For long-term treatment, bone density was monitored at intervals of 6 to 12 months. In seven subjects, trials of withdrawal from 14α,15α-methylene-1,3,5(10),8-tetraene-3,17α-diol over 4 to 8 weeks each were done.

[3] = tested on: seminal vesicles of male rats; experiment: Model study in male rats: moisture content of the seminal vesicles after 21 days; format: in vivo
Procedure: (§2) A model study was performed in which both 17β-estradiol and 14α,15α-methylene-1,3,5(10),8-tetraene-3,17α-diol were administered to male rats. The purpose of this study was to compare the extent of the undersirable side effects produced in males (in this case male rats as a model) that are produced by administration of an estrogen, namely 17β-estradiol, and by 14α, 15α-methylene-1,3,5(10),8-tetraene-3,17α-diol, an effective ingredient of the present invention.
(§3) Respective amounts of 17β-estradiol and 14α,15α-methylene-1,3,5(10),8-tetraene-3,17α-diol equivalent to 0.04 mg/kg body weight were administered over a 21 day period to the male rats in corresponding groups of male rats. These amounts were administered daily over the 21 day period to individual male rats subcutaneously. Eight male rats were in each group.
(§4) The moisture content in the prostate and seminal vesicles of each tested male rat was measured at the end of the 21 day test period. The experimental error estimate is shown with the “T” at the top of each bar in the respective bar graphs.

prostate of male rats = experiment: Model study in male rats: moisture content of the prostate after 21 days; format: in vivo
Procedure: as §2, §3, §4

[4] = tested on: males with prostate-Ca under GnRHa therapy; experiment: Observation in males with prostate-Ca under GnRHa therapy; format: in vivo, human
[5] = tested on: female test subjects treated with Decapeptyl-Depot for endometriosis; experiment: Clinical study in women with endometriosis under GnRHa therapy (Decapeptyl-Depot); format: in vivo, human; remark: listed apart in the source

C[C@]12CCC3=C(CCc4cc(O)ccc43)[C@@]13C[C@H]3C[C@H]2O [14α,15α-methylene-1,3,5(10),8-tetraene-3,17α-diol]
course of the decrease in uterine volume versus subjects not receiving the compound ([1]; Decapeptyl-Depot plus add-on): identical | influence on the effect of the GnRHa therapy on the lower organs ([1]; supplementary treatment): did not influence | uterus size ([1]; within three months, Decapeptyl-Depot plus add-on): 40±10 % of the starting value | bleeding ([2]; 1 to 2 mg daily as vaginal suppository in addition to Decapeptyl-Depot): No bleeding occurred | values for LH, FSH, prolactin, testosterone, DHEAS, SHBG, estradiol, and progesterone ([2]; 1 to 2 mg daily vaginal suppository in addition to Decapeptyl-Depot): remained low and unchanged | Ca 125 values ([2]; add-on to Decapeptyl-Depot): did not rise | body weight ([2]; add-on to Decapeptyl-Depot): no change | intracyclic bleeding ([2]; add-on to Decapeptyl-Depot): No intracyclic bleeding occurred | liver values, blood count or electrolytes ([2]; add-on to Decapeptyl-Depot): No changes | endometriosis-specific complaints ([2]; during the treatment): did not recur | bone density ([2]; over one year, four subjects monitored): did not change significantly | blood pressure ([2]; subjects with borderline RR (n=4, RR around 140/80)): around 110/70 | hot flashes in withdrawal trial ([2]; withdrawal over 4 to 8 weeks, seven subjects): increase in hot flashes, within three weeks back to the starting values | proliferation effect on the seminal vesicles (increase in the moisture content) ([3]; male rats, 0.04 mg/kg body weight subcutaneously daily over 21 days, FIG. 2): no profileration effect | proliferation effect in the prostates (increase in the moisture content) (prostate of male rats; male rats, 0.04 mg/kg body weight subcutaneously daily over 21 days, FIG. 1): scarcely any proliferation effect | undesirable estrogen side effects (prostate of male rats; male rats, prostate and seminal vesicles, 0.04 mg/kg s.c. daily 21 days): no undesirable estrogen side effects | hot flashes tripped by GnRHa therapy [4]: same result | complaints of undesirable estrogen-related side effects ([5]; all subjects): complaint-free | hot flashes tripped by GnRHa therapy ([5]; treated females, endometriosis or fibroid tumors of the uterus): effectively eliminated

C[C@]12CC[C@@H]3c4ccc(O)cc4CC[C@H]3[C@@H]1CC[C@@H]2O [estradiol, 17β-estradiol, reference compound]
proliferation effect on the seminal vesicles (increase in the moisture content) ([3]; rat, in vivo, sc, 0.04 mg/kg): comparatively large proliferation effect | proliferation effect in the prostates (increase in the moisture content) (prostate of male rats; rat, in vivo, sc, 0.04 mg/kg): comparatively large proliferation effect | undesirable estrogen side effects (prostate of male rats; rat, in vivo, sc, 0.04 mg/kg): estrogen side effects of course result
